Measurements as given in patent US20240208961A1, “EIF4E INHIBITORS AND USES THEREOF” (PIC Therapeutics, Inc., priority 2022, published 2024).
Where “and” joins values, the source holds several entries; their conditions need not be identical. Equal values may be shown once. Read-outs that look alike come from different tables or passages of the source.

What was measured:
4E-BP1 = assay: Hyperphosphorylation of 4E-BP1 in multiple myeloma cell line MM.1R (FIG. 11A); format: cell-based; settings: MM.1R cells, 2 hours
[1] = Pharmacokinetic study of I-11 in female BALB/c mice (Example 4); format: in vivo, Balb/c mouse
Procedure: Pharmacokinetic Study in Female BALB/c Mice: Balb/c mouse, 17-19 g, 8-10 weeks, female, N=27, purchased from JH Laboratory Animal Co. LTD
Fasted overnight and fed at 4 hr post dosing.
Animals dosed with sampling at 0.083, 0.25, 0.5, 1, 2, 4, 8, 24 hr post dose. 8 time points. Semi-serial bleeding for plasma only. The animals were restrained manually at the designated time points. Approx. 110 μL of blood/time point was taken from the animals via facial vein into tubes with K2EDTA. Blood sample was centrifuged at 4° C. (2000 g, 5 min) to obtain plasma within 15 m after sample collection. Put on wet ice, then plasma samples were stored at approximately −70° C. until analysis.
For oral gavage, compound was dosed as a suspension in […] carboxymethyl cellulose (CMC), 0.2% Tween 80 in water. Compound was orally dosed at 50 mg/Kg, at 100 mg/Kg.
For IV dosing, compound was dissolved into a solution of […], […] HS 15 and 90% Saline. Compound was IV dosed at 5 mg/Kg.
Plasma samples were analyzed for I-11 using LC-MS using a calibration curve of known concentrations.
FIG. 1 describes the mean plasma concentration-time profiles of I-11 after single IV dose of 5 mg/kg, PO dose of 50 mg/kg and 100 mg/kg in female Balb/c mice (N=3/time point). • Note: • 1. […] The IV dosing solutions were prepared in 5% DMSO+5% Solutol HS15+90% Saline. The PO dosing solutions were prepared in 1% CMC-Na+0.2% Tween 80 in water. • 3. BQL=Below quantifiable limit of 3.00 ng/mL for I-11 in female Balb/c mouse plasma samples. • 4. PK parameters were estimated by non-compartmental model using WinNonlin 8.2. If the adjusted rsq (linear regression coefficient of the concentration value on the terminal phase) is less than 0.9, T1/2 might not be accurately estimated. • 5. F value was determined by the following equation: • If AUClast/AUCINF>80%:
F=(AUCINF-EX×DOSEIV)/(AUCINF-IV×DOSEEX)[…] • If AUClast/AUCINF<80% or AUCINF not available:
F=([…])/(AUClast-IV×DOSEEX)[…] • 6. NA: Not available.

[2] = IV 5 mg/kg, 24 hr, BQL = below quantifiable limit of 3.00 ng/mL

Structure (SMILES): CC(C)Cc1sc(Nc2ncc(-c3cccs3)cc2C(=O)O)nc1C(C)(C)C [Compound I-11]
- relative levels of hyperphospho-4E-BP1 (4E-BP1): significantly lowers relative levels of hyperphospho-4E-BP1
- Plasma concentration Individual ([1]; IV 5 mg/kg, 0.083 hr, 5 mg/kg): 9810 ng/mL and 12300 ng/mL
- Plasma concentration Individual ([1]; IV 5 mg/kg, 0.25 hr, 5 mg/kg): 5200 ng/mL and 5420 ng/mL
- Plasma concentration Individual ([1]; IV 5 mg/kg, 0.5 hr, 5 mg/kg): 2920 ng/mL and 1730 ng/mL
- Plasma concentration Individual ([1]; IV 5 mg/kg, 1 hr, 5 mg/kg): 865 ng/mL and 1180 ng/mL and 1810 ng/mL
- Plasma concentration Individual ([1]; IV 5 mg/kg, 2 hr, 5 mg/kg): 142 ng/mL
- Plasma concentration Individual ([1]; IV 5 mg/kg, 4 hr, 5 mg/kg): 48.5 ng/mL and 29.8 ng/mL
- Plasma concentration Individual ([1]; IV 5 mg/kg, 8 hr, 5 mg/kg): 26.1 ng/mL and 15.9 ng/mL
- Plasma concentration Individual [1, 2]: BQL
- Plasma concentration Mean [1, 2]: BQL
- abnormal clinical symptoms during in-life study ([1]; IV 5 mg/kg, PO 50 and 100 mg/kg single dose): No abnormal clinical symptoms were observed
- F ([1]; PO 50 mg/kg vs IV 5 mg/kg): 50.9%
- Plasma concentration Individual ([1]; PO 50 mg/kg, 0.083 hr, 50 mg/kg): 288 ng/mL and 220 ng/mL
- Plasma concentration Individual ([1]; PO 50 mg/kg, 0.25 hr, 50 mg/kg): 1880 ng/mL and 2380 ng/mL and 1030 ng/mL
- Plasma concentration Individual ([1]; PO 50 mg/kg, 0.5 hr, 50 mg/kg): 6750 ng/mL and 6980 ng/mL
- Plasma concentration Individual ([1]; PO 50 mg/kg, 1 hr, 50 mg/kg): 5940 ng/mL and 6670 ng/mL
- Plasma concentration Individual ([1]; PO 50 mg/kg, 2 hr, 50 mg/kg): 7770 ng/mL and 3890 ng/mL
- Plasma concentration Individual ([1]; PO 50 mg/kg, 4 hr, 50 mg/kg): 1750 ng/mL and 2280 ng/mL
- Plasma concentration Individual ([1]; PO 50 mg/kg, 8 hr, 50 mg/kg): 249 ng/mL and 325 ng/mL
- Plasma concentration Individual ([1]; PO 50 mg/kg, 24 hr, 50 mg/kg): 3.85 ng/mL and 64.0 ng/mL and 182 ng/mL
- F ([1]; PO 100 mg/kg vs IV 5 mg/kg): 60.0%
- Plasma concentration Individual ([1]; PO 100 mg/kg, 0.083 hr, 100 mg/kg): 318 ng/mL and 232 ng/mL
- Plasma concentration Individual ([1]; PO 100 mg/kg, 0.25 hr, 100 mg/kg): 2990 ng/mL and 2700 ng/mL
- Plasma concentration Individual ([1]; PO 100 mg/kg, 0.5 hr, 100 mg/kg): 4890 ng/mL and 6670 ng/mL and 11900 ng/mL
- Plasma concentration Individual ([1]; PO 100 mg/kg, 1 hr, 100 mg/kg): 6710 ng/mL and 7030 ng/mL
- Plasma concentration Individual ([1]; PO 100 mg/kg, 2 hr, 100 mg/kg): 14100 ng/mL and 12300 ng/mL
- Plasma concentration Individual ([1]; PO 100 mg/kg, 4 hr, 100 mg/kg): 4840 ng/mL and 6930 ng/mL and 12800 ng/mL
- Plasma concentration Individual ([1]; PO 100 mg/kg, 8 hr, 100 mg/kg): 444 ng/mL and 503 ng/mL and 953 ng/mL
- Plasma concentration Individual ([1]; PO 100 mg/kg, 24 hr, 100 mg/kg): 40.6 ng/mL and 57.5 ng/mL and 84.2 ng/mL
- clearance ([1]; female, BALB/c, mouse, plasma, iv, 5 mg/kg, IV 5 mg/kg): 15.8 mL/min/kg
- concentration at 0.083 hr ([1]; female, BALB/c, mouse, plasma, iv, 5 mg/kg, IV 5 mg/kg, 0.083 hr, read-out: Plasma concentration Individual): 7980 ng/mL
- concentration at 0.083 hr ([1]; female, BALB/c, mouse, plasma, iv, 5 mg/kg, IV 5 mg/kg, 0.083 hr, read-out: Plasma concentration Mean): 10000 ng/mL
- concentration at 0.25 hr ([1]; female, BALB/c, mouse, plasma, iv, 5 mg/kg, IV 5 mg/kg, 0.25 hr, read-out: Plasma concentration Individual): 5600 ng/mL
- concentration at 0.25 hr ([1]; female, BALB/c, mouse, plasma, iv, 5 mg/kg, IV 5 mg/kg, 0.25 hr, read-out: Plasma concentration Mean): 5410 ng/mL
- concentration at 0.5 hr ([1]; female, BALB/c, mouse, plasma, iv, 5 mg/kg, IV 5 mg/kg, 0.5 hr, read-out: Plasma concentration Individual): 2710 ng/mL
- concentration at 0.5 hr ([1]; female, BALB/c, mouse, plasma, iv, 5 mg/kg, IV 5 mg/kg, 0.5 hr, read-out: Plasma concentration Mean): 2450 ng/mL
- concentration at 1 hr ([1]; female, BALB/c, mouse, plasma, iv, 5 mg/kg, IV 5 mg/kg, 1 hr, read-out: Plasma concentration Mean): 1280 ng/mL
- concentration at 2 hr ([1]; female, BALB/c, mouse, plasma, iv, 5 mg/kg, IV 5 mg/kg, 2 hr, read-out: Plasma concentration Individual): 135 ng/mL
- concentration at 2 hr ([1]; female, BALB/c, mouse, plasma, iv, 5 mg/kg, IV 5 mg/kg, 2 hr, read-out: Plasma concentration Mean): 140 ng/mL
- concentration at 4 hr ([1]; female, BALB/c, mouse, plasma, iv, 5 mg/kg, IV 5 mg/kg, 4 hr, read-out: Plasma concentration Individual): 58.3 ng/mL
- concentration at 4 hr ([1]; female, BALB/c, mouse, plasma, iv, 5 mg/kg, IV 5 mg/kg, 4 hr, read-out: Plasma concentration Mean): 45.5 ng/mL
- concentration at 8 hr ([1]; female, BALB/c, mouse, plasma, iv, 5 mg/kg, IV 5 mg/kg, 8 hr, read-out: Plasma concentration Individual): 19 ng/mL
- concentration at 8 hr ([1]; female, BALB/c, mouse, plasma, iv, 5 mg/kg, IV 5 mg/kg, 8 hr, read-out: Plasma concentration Mean): 20.3 ng/mL
- concentration at 0.083 hr ([1]; female, BALB/c, mouse, plasma, po, 50 mg/kg, PO 50 mg/kg, 0.083 hr, read-out: Plasma concentration Individual): 263 ng/mL
- concentration at 0.083 hr ([1]; female, BALB/c, mouse, plasma, po, 50 mg/kg, PO 50 mg/kg, 0.083 hr, read-out: Plasma concentration Mean): 257 ng/mL
